Measured values: patent US20120177797A1, “TASTE ENHANCING AGENT” (J-OIL MILLS, INC., priority 2009, published 2012)

Assays:
Assay type in all cases: in vivo
[1] = Sensory evaluation whether salt usage can be reduced; details: 10 ppm added to 0.5% aqueous NaCl solution; for Scores in sensory evaluation (taste intensity, saltiness): 0.5% NaCl solution = 3.0, scale 1.0-5.0
Procedure: (§1) All sensory evaluation of taste was performed by individuals wearing a nose clip. The evaluation was performed by groups of three individuals, and the scores were averaged.
Evaluation was conducted to find whether salt usage can be reduced by the taste enhancing effects. To a 0.5% aqueous NaCl solution was added 10 ppm n-hexanal or 10 ppm 1-octen-3-ol. Taste intensity was determined in the sensory evaluation where the taste intensity of the 0.5% NaCl solution was set to 3.0. For comparison, sensory evaluation was also performed for a 0.8% and 0.6% concentration of aqueous NaCl solution. The sensory evaluation was evaluated as follows. The results are shown in Table 5. • 1.0: Much weaker • 2.0: Weaker • 3.0: Similar • 4.0: Stronger • 5.0: Much stronger

[2] = Sensory evaluation, intensity of saltiness in aqueous NaCl solution; details: additive-free = 3.0
Procedure: as §1
(§2) To a 0.2% aqueous sodium glutamate (MSG) solution (=umami), a 0.8% aqueous salt (NaCl) solution (=saltiness) and a 2% aqueous sucrose solution (=sweetness) were added 10 ppm linear aliphatic aldehydes having 3-12 carbon atoms shown in Table 1, respectively. Sensory evaluation was performed in which intensity of taste sensed when each of the aqueous solutions is introduced into the mouth is defined as “Intensity of umami” for the aqueous MSG solution, “Intensity of saltiness” for the aqueous NaCl solution and “Intensity of sweetness” for the aqueous sucrose solution. The score of aldehyde-free taste intensity was set to 3.0, and taste intensity upon addition of aldehyde was evaluated as follows. The results are shown in Table 1. • 1.0: Much weaker • 2.0: Weaker • 3.0: Similar • 4.0: Stronger • 5.0: Much Stronger
(§3) To a 0.2% aqueous sodium glutamate (MSG) solution (=umami), a 0.8% aqueous salt (NaCl) solution (=saltiness), a 2% aqueous sucrose solution (=sweetness) were added 10 ppm linear aliphatic alcohols having 2-11 carbon atoms, respectively. Sensory evaluation was performed in which intensity of taste sensed when each of the aqueous solutions is introduced into the mouth is defined as “Intensity of umami” for the aqueous MSG solution, “Intensity of saltiness” for the aqueous NaCl solution and “Intensity of sweetness” for the aqueous sucrose solution. The score of alcohol-free taste intensity was set to 3.0, and taste intensity upon addition was evaluated as follows. The results are shown in Table 3. • 1.0: Much weaker • 2.0: Weaker • 3.0: Similar • 4.0: Stronger • 5.0: Much stronger
(§4) To a 0.2% aqueous sodium glutamate (MSG) solution (=umami), a 0.8% aqueous salt (NaCl) solution (=saltiness), a 2% aqueous sucrose solution (=sweetness) were added 1 ppm n-hexanal and 1ppm 1-octene-3-ol each, respectively. Sensory evaluation was performed in which the intensity of taste sensed when each of the aqueous solutions is introduced into the mouth is defined as “Intensity of umami” for the aqueous MSG solution, “Intensity of saltiness” for the aqueous NaCl solution and “Intensity of sweetness” for the aqueous sucrose solution. The score of additive-free taste intensity was set to 3.0, and taste intensity upon addition was evaluated as follows. The results are shown in Table 9. • 1.0: Much weaker • 2.0: Weaker • 3.0: Similar • 4.0: Stronger • 5.0: Much stronger

[3] = Sensory evaluation whether sucrose usage can be reduced; details: 10 ppm added to 1.5% aqueous sucrose solution; for Scores in sensory evaluation (taste intensity, sweetness): 1.5% sucrose solution = 3.0, scale 1.0-5.0
Procedure: as §1
Evaluation was conducted to find whether sucrose usage can be reduced by the taste enhancing effects. To a 1.5% aqueous sucrose solution was added 10 ppm n-hexanal or 10 ppm 1-octen-3-ol. Taste intensity was determined in the sensory evaluation where the taste intensity of the 1.5% sucrose solution was set to 3.0. For comparison, sensory evaluation was also performed for a 2.0% and 1.8% concentration of aqueous sucrose solution. The sensory evaluation was evaluated as follows. The results are shown in Table 6. • 1.0: Much weaker • 2.0: Weaker • 3.0: Similar • 4.0: Stronger • 5.0: Much stronger

[4] = Sensory evaluation, intensity of saltiness in aqueous NaCl solution; details: additive-free = 3.0, scale 1.0-5.0
[5] = Sensory evaluation, intensity of saltiness in diluted soy sauce; details: 10 ppm in soy sauce diluted to 2% in water; aldehyde-free = 3.0; scale 1.0-5.0
Procedure: as §1
(§5) Sensory evaluation was performed for “Intensity of Umani ” and “ Intensity of Saltiness “. The score of aldehyde-free taste intensity was set to 3.0, and taste intensity upon addition was evaluated as follows. The results are shown in Table 7. • 1.0: Much weaker • 2.0: Weaker • 3.0: Similar • 4.0: Stronger • 5.0: Much stronger

[6] = Sensory evaluation, intensity of sweetness in whipped cream; details: 100 ppm in whipped cream; aldehyde-free = 3.0; scale 1.0-5.0
Procedure: as §1
Sensory evaluation was performed for “Intensity of sweetness”. The score of aldehyde-free taste intensity was set to 3.0, and taste intensity upon addition was evaluated as follows. The results are shown in Table 8. • 1.0: Much weaker • 2.0: Weaker • 3.0: Similar • 4.0: Stronger • 5.0: Much stronger

[7] = Sensory evaluation, intensity of sweetness in aqueous sucrose solution; details: additive-free = 3.0
Procedure: as §1, §2, §3, §4

[8] = Sensory evaluation, intensity of umami in aqueous MSG solution; details: additive-free = 3.0, scale 1.0-5.0
[9] = Sensory evaluation, intensity of sweetness in aqueous sucrose solution; details: additive-free = 3.0, scale 1.0-5.0
[10] = Sensory evaluation, intensity of umami in diluted soy sauce; details: 10 ppm in soy sauce diluted to 2% in water; aldehyde-free = 3.0; scale 1.0-5.0
Procedure: as §1, §5

[11] = Sensory evaluation, intensity of umami in aqueous MSG solution; details: additive-free = 3.0
Procedure: as §1, §2, §3, §4

[12] = 1 ppm added to 0.8% NaCl, scale 1.0-5.0
[13] = 10 ppm added to 0.8% NaCl, 1.0 much weaker to 5.0 much stronger
[14] = 1 ppm added to 2% sucrose, scale 1.0-5.0
[15] = 10 ppm added to 2% sucrose, 1.0 much weaker to 5.0 much stronger
[16] = 1 ppm added to 0.2% MSG, scale 1.0-5.0
[17] = 10 ppm added to 0.2% MSG, 1.0 much weaker to 5.0 much stronger, mean of three individuals, nose clip

CCCCCC=O [n-hexanal]
Concentration of aqueous NaCl solution of similar saltiness intensity [1]: ~0.8%
Scores in sensory evaluation (taste intensity, saltiness) [1]: 4.0
Intensity of saltiness, Aqueous NaCl solution [2, 12]: 4.3
Intensity of saltiness, Aqueous NaCl solution [2, 13]: 5.0
Concentration of aqueous sucrose solution of comparable/similar sweetness intensity [3]: ~2.0%
Scores in sensory evaluation (taste intensity, sweetness) [3]: 4.0
Intensity of saltiness, Aqueous NaCl solution ([4]; 0.001 ppm added to 0.8% NaCl): 3.5
Intensity of saltiness, Aqueous NaCl solution ([4]; 0.01 ppm added to 0.8% NaCl): 4.0
Intensity of saltiness, Aqueous NaCl solution ([4]; 0.1 ppm added to 0.8% NaCl): 4.2
Intensity of saltiness, Aqueous NaCl solution ([4]; 100 ppm added to 0.8% NaCl): 5.0
Intensity of saltiness, Aqueous NaCl solution ([4]; 1000 ppm added to 0.8% NaCl): 5.0
Intensity of saltiness [5]: 4.5
Intensity of sweetness [6]: 4.5
Intensity of sweetness, Aqueous sucrose solution [7, 14]: 3.8
Intensity of sweetness, Aqueous sucrose solution [7, 15]: 4.5
Intensity of umami, Aqueous MSG solution ([8]; 0.001 ppm added to 0.2% MSG): 3.5
Intensity of umami, Aqueous MSG solution ([8]; 0.01 ppm added to 0.2% MSG): 4.0
Intensity of umami, Aqueous MSG solution ([8]; 0.1 ppm added to 0.2% MSG): 4.2
Intensity of umami, Aqueous MSG solution ([8]; 100 ppm added to 0.2% MSG): 5.0
Intensity of umami, Aqueous MSG solution ([8]; 1000 ppm added to 0.2% MSG): 5.0
Intensity of sweetness, Aqueous sucrose solution ([9]; 0.001 ppm added to 2% sucrose): 3.5
Intensity of sweetness, Aqueous sucrose solution ([9]; 0.01 ppm added to 2% sucrose): 3.8
Intensity of sweetness, Aqueous sucrose solution ([9]; 0.1 ppm added to 2% sucrose): 3.8
Intensity of sweetness, Aqueous sucrose solution ([9]; 100 ppm added to 2% sucrose): 4.5
Intensity of sweetness, Aqueous sucrose solution ([9]; 1000 ppm added to 2% sucrose): 5.0
Intensity of umami [10]: 4.5
Intensity of umami, Aqueous MSG solution [11, 16]: 4.3
Intensity of umami, Aqueous MSG solution [11, 17]: 5.0

C=CC(O)CCCCC (centres unmarked) [Example 1-octen-3-ol, 1-octen-3-ol]
Concentration of aqueous NaCl solution of similar saltiness intensity [1]: ~0.6%
Scores in sensory evaluation (taste intensity, saltiness) [1]: 3.5
Intensity of saltiness, Aqueous NaCl solution [2, 12]: 3.5
Intensity of saltiness, Aqueous NaCl solution [2, 13]: 3.5
Concentration of aqueous sucrose solution of comparable/similar sweetness intensity [3]: ~1.8%
Scores in sensory evaluation (taste intensity, sweetness) [3]: 3.5
Intensity of saltiness, Aqueous NaCl solution ([4]; 0.01 ppm added to 0.8% NaCl): 3.2
Intensity of saltiness, Aqueous NaCl solution ([4]; 0.1 ppm added to 0.8% NaCl): 3.5
Intensity of saltiness, Aqueous NaCl solution ([4]; 100 ppm added to 0.8% NaCl): 3.8
Intensity of saltiness, Aqueous NaCl solution ([4]; 1000 ppm added to 0.8% NaCl): 3.8
Intensity of sweetness, Aqueous sucrose solution [7, 14]: 3.2
Intensity of sweetness, Aqueous sucrose solution [7, 15]: 3.5
Intensity of umami, Aqueous MSG solution ([8]; 0.01 ppm added to 0.2% MSG): 3.2
Intensity of umami, Aqueous MSG solution ([8]; 0.1 ppm added to 0.2% MSG): 3.2
Intensity of umami, Aqueous MSG solution ([8]; 100 ppm added to 0.2% MSG): 3.8
Intensity of umami, Aqueous MSG solution ([8]; 1000 ppm added to 0.2% MSG): 3.8
Intensity of sweetness, Aqueous sucrose solution ([9]; 0.01 ppm added to 2% sucrose): 3.2
Intensity of sweetness, Aqueous sucrose solution ([9]; 0.1 ppm added to 2% sucrose): 3.2
Intensity of sweetness, Aqueous sucrose solution ([9]; 100 ppm added to 2% sucrose): 3.5
Intensity of sweetness, Aqueous sucrose solution ([9]; 1000 ppm added to 2% sucrose): 3.5
Intensity of umami, Aqueous MSG solution [11, 16]: 3.5
Intensity of umami, Aqueous MSG solution [11, 17]: 3.5
